According to patent US20130150327A1, “COMPOSITION FOR PREVENTING HAIR LOSS OR STIMULATING HAIR GROWTH” (Biopid Corporation, priority 2010, published 2013):

Key:
C3H/HeNCrljBgi mice = test: Animal Test 3: organic acid effect and soy extracted phospholipid effect, hair growth area; format: in vivo, mouse; details: 2.5 weeks, twice a day, phospholipids 20 mg/ml, minoxidil 5% applied to all groups except Group 1 30 minutes before the composition
Procedure: In addition, the composition was prepared by using soy lecithin (phospholipid extracted from soy, #86015-1201, Junsei Chemical, Japan), and then effect of the composition on hair growth was compared. C3H/HeNCrljBgi species of 7 ages of weeks (Orient Bio, Sungnam, Korea) were purchased as the experimental mice, and then used for the test. […] The composition of the present invention was applied for 2.5 weeks, and 60 ml of the composition was applied on the backs of the hairs-removed mice twice a day. The concentration of the applied phospholipids was 20 mg/ml. As a measurement of hair growth in the mice, the pictures of the mice of each experimental group were taken, respectively, and then the ratio of the hair growth area in the hairs-removed area was calculated.

[1] = test system: mice with DNFB-induced allergic dermatitis; test: Animal Test 1: hair follicle growth in back skin tissue of mice with DNFB-induced allergic dermatitis; format: in vivo, mouse; details: comparators: Tacrolimus ointment (FIG. 5), 0.1% dexamethasone in ethanol (FIG. 6), twice a day, 10 days
Source text: In order to prepare animal models with an atopic dermatitis, or a contact dermatitis and allergic dermatitis, After 1 week of sensitizing with DNFB, DNFB was applied to the backs of mice total 10 times per 2 weeks to induce an artificial allergic dermatitis. […] Since applying DNFB five times, the composition of the present invention, Tacrolimus ointment (trade name, Protopic, Astella Pharma Korea, Inc.), and dexamethasone (Sigma Chem. Co. USA, 0.1% solution dissolved in ethanol) were applied to the backs of mice occurred with inflammation twice a day in the amount of 60 ml, respectively. At 10 days after applying, the mice tissues were collected to test experiments.

SMILES | Hair growth area (ratio of the hair growth area in the hairs-removed area) (C3H/HeNCrljBgi mice) | hair follicle growth in mice tissues [1]
Nc1cc(N2CCCCC2)nc(N)[n+]1[O-] [Minoxidil, minoxidil] | 10.2 | –
C=CC[C@@H]1/C=C(\C)C[C@H](C)C[C@H](OC)[C@H]2O[C@@](O)(C(=O)C(=O)N3CCCC[C@H]3C(=O)O[C@H](/C(C)=C/[C@@H]3CC[C@@H](O)[C@H](OC)C3)[C@H](C)[C@@H](O)CC1=O)[C@H](C)C[C@@H]2OC [Tacrolimus, tacrolimus] | – | new hair follicles were formed
